In the data set the test system is methylated gene promoters in plasma DNA. Kind of data set: Real-time MSP on plasma DNA. More on the design: species or system human. The note with it: for % Specificity (all 59 controls), plasma set 1: plasma training set 1; for % Sensitivity adenomas plasma set 2: increased plasma equivalent of DNA per real-time MSP assay / % Specificity (all 89 controls), plasma set 2: increased plasma equivalent of DNA per real-time MSP assay: plasma training set 2. Here is the method: 10 ml of blood was obtained per individual using EDTA Vacutainer™ tubes. Individuals with no suspicious findings, adenomas or carcinomas based on colonoscopy were enrolled in the present study. Within 4 hrs from the blood drawing, the plasma fraction was separated from the cell fraction by centrifugation at 1500 g for 15 min (4° C.). The plasma was transferred to new tubes and once again centrifuged (1500 g, 15 min, 4° C.), after which the supernatant was transferred to new tubes and stored at −80° C. until further use. Samples were shipped on dry ice.
DNA isolation from plasma samples (1.2 to 6 ml) was performed using an upscaled phenol-chloroform DNA isolation method using the 15 ml of Heavy Phase lock Gel tubes (PLG tubes) (Eppendorf, cat #0032 005.152) or alternatively the ChargeSwitch® gDNA 1 ml serum kit from Invitrogen (cat #CS11040).
Plasma samples were thawed and 1/10 volume of 10× buffer (240 mM EDTA (pH=8.0), 750 mM NaCl), 1/10 volume of 10% SDS and 5 μl of Proteinase K (20 mg/ml stock solution) per 1 ml of sample (e.g. 15 μl for 3 ml of sample) was added to each plasma sample. This mixture was incubated overnight at 48° C. at constant shaking (200 RPM).
Subsequently the PLG tube was centrifuged at 2500 RCF for 3 min, sample mixture and approximately the same volume of phenol/chloroform (Invitrogen, cat #15593049) were added to it. This solution was briefly vortexed, mixed for 10 min using a tube rocker at room temperature and centrifuged for 5 min at 2500 RCF. In case the retrieved sample volume was ≤4 ml, an equal volume of phenol/chloroform was added. The upper aqueous layer was phenol/chloroform-treated for a second time.
DNA was precipated from the upper aqueous layer by adding 5 μl glycogen, 1/10 volume of 7.5 M Ammonium Acetate and 2-2.5 volumes of cold (−20° C.) 100% ethanol. Tubes were gently inverted and incubated at −20° C. for at least 1 h, followed by a centrifugation step at 17000 RCF for 30 min (4° C.). Ethanol was carefully removed by pipetting. Pellets were washed with 2 ml freshly prepared 70% ethanol, vortexed gently and submitted to a centrifugation step at 17000 RCF for 15 min at 4° C. After careful removal of the remaining ethanol, pellets were air dried and resuspended in 45 μl of LoTE pH 8.0. The isolated DNA is stored at −80° C. until further processing.
The complete content of DNA isolated in above procedure was subjected to sodium bisulfite treatment (BT) using the EZ-96 DNA Methylation kit from Zymo Research (Cat #D5003) performed on a pipetting robot (Tecan Freedom EVOII, Roma, Liha, Mca, Te-Vacs). Briefly, 45 μl of plasma DNA sample was mixed with 5 μl of M-Dilution Buffer (provided in kit) and incubated at 37° C. for 15 min shaking at 1100 RPM. This mixture was further incubated with 100 μl of diluted CT conversion reagent (provided in kit) shaking at 70° C. for 3 hours (protected from light). Subsequently the modified DNA was desalted and desulfonated according to manufacturer's instructions and eluted in either 40 μl or 20 μl of Tris-HCl 1 mM pH8.0, depending on the applied concentration procedure. The eluted material was stored at −80° C. until further processing.
2.4 μl of the modified DNA was added to a PCR mix (total volume 12 μl) containing home-made buffer solution (final concentrations are summarized: 16.6 mM (NH4)2SO4, 67 mM Tris (pH 8.8), 6.7 mM MgCl2, 10 mM β-mercaptoethanol), dNTPs (5 mM; Amersham Biosciences cat #27-2035-02), methylation specific forward primer (6 ng), methylation specific reverse primer (18 ng), molecular beacon (0.16 μM) and Jumpstart DNA Taq polymerase (0.4 units; Sigma Cat #D9307).
A standard curve was included (9.6×10^5—9.6 copies) to determine copy numbers of unknown samples by interpolation of their Ct values to the standard curve.
DNA was isolated following the upscaled phenol-chloroform procedure; subsequently the whole DNA sample was modified as described above.

The values that follow come from patent publication US12215389B2, “Compositions for detecting epigenetic modifications” (EXACT SCIENCES CORPORATION, priority 2007, dated 2025).

As for “SFRP1 (DNA TGTAGTTTTCGGAGTTAGTGTCGCGC; listed as DNA, chemistry not given here)”, the “% Specificity (all 59 controls), plasma set 1” value amounted to 98%; the “% Sensitivity adenomas plasma set 2: increased plasma equivalent of DNA per real-time MSP assay” value was 2%; the “% Specificity (all 89 controls), plasma set 2: increased plasma equivalent of DNA per real-time MSP assay” value was 96%.

“GATA5 (DNA AGTTCGTTTTTAGGTTAGTTTTCGGC; listed as DNA, chemistry not given here)”: the “% Specificity (all 59 controls), plasma set 1” value came out at 97%; the “% Sensitivity adenomas plasma set 2: increased plasma equivalent of DNA per real-time MSP assay” value stood at 6%; the “% Specificity (all 89 controls), plasma set 2: increased plasma equivalent of DNA per real-time MSP assay” value is 99%.
